Measured values reported in PubChem BioAssay AID342 (DTP/NCI, 2004).
Where “and” joins values, the source holds several entries; their conditions need not be identical. Equal values may be shown once.

System: Swiss mice, Sarcoma 180 sc, mean tumor weight T/C
Assay: NCI In Vivo Anticancer Drug Screen. Data for tumor model Sarcoma 180 (subcutaneous) in Swiss mice
Conditions: endpoint: mean tumor weight, higher = larger tumour
Procedure, shortened: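 Readout is the ratio of treated-group measurement to vehicle-control measurement (T/C), based on survival or tumor size in mice carrying transplanted tumors.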

[1] = dose: 62.5 mg/kg/injection, schedule: Q#A X014 (ip), vehicle: carboxymethylcellulose (CMC)
[2] = dose: 112.5 mg/kg/injection, schedule: Q01DX007 (ip), vehicle: carboxymethylcellulose (CMC)
[3] = dose: 125.0 mg/kg/injection, schedule: Q#A X014 (ip), vehicle: carboxymethylcellulose (CMC)
[4] = dose: 225.0 mg/kg/injection, schedule: Q01DX007 (ip), vehicle: carboxymethylcellulose (CMC)
[5] = dose: 250.0 mg/kg/injection, schedule: Q#A X014 (ip), vehicle: carboxymethylcellulose (CMC)

Structure (SMILES): CC1CN1C(=O)Nc1cccc2c(NC(=O)N3CC3C)cccc12 (centres undefined)
- T/C (dose: 9.5 mg/kg/injection, schedule: Q#A X014 (ip), vehicle: methylcellulose (MC)): 66 % of control
- T/C (dose: 14.0 mg/kg/injection, schedule: Q#A X014 (ip), vehicle: methylcellulose (MC)): 62 % of control
- T/C (dose: 20.5 mg/kg/injection, schedule: Q#A X014 (ip), vehicle: methylcellulose (MC)): 31 % of control
- T/C (dose: 21.0 mg/kg/injection, schedule: Q#A X014 (ip), vehicle: methylcellulose (MC)): 35 % of control
- T/C (dose: 31.5 mg/kg/injection, schedule: Q#A X014 (ip), vehicle: methylcellulose (MC)): 23 % of control
- T/C (dose: 35.0 mg/kg/injection, schedule: Q01DX007 (ip), vehicle: carboxymethylcellulose (CMC)): 50 % of control
- T/C (dose: 35.0 mg/kg/injection, schedule: Q01DX007 (ip), vehicle: saline): 53 % of control
- T/C (dose: 47.0 mg/kg/injection, schedule: Q#A X014 (ip), vehicle: methylcellulose (MC)): 7 % of control
- T/C (dose: 53.0 mg/kg/injection, schedule: Q01DX007 (ip), vehicle: saline): 46 % of control
- T/C (dose: 80.0 mg/kg/injection, schedule: Q01DX007 (ip), vehicle: saline): 35 % of control

Structure (SMILES): C=CC1CN2CCC1CC2C(O)c1ccnc2ccc(OC)cc12 (centres undefined)
- T/C (dose: 30.16 mg/kg/injection, schedule: Q01DX007 (ip), vehicle: other): 96 % of control
- T/C (dose: 31.25 mg/kg/injection, schedule: Q#A X014 (ip), vehicle: carboxymethylcellulose (CMC)): 101 % of control
- T/C (dose: 47.12 mg/kg/injection, schedule: Q01DX007 (ip), vehicle: carboxymethylcellulose (CMC)): 92 % of control
- T/C (dose: 56.25 mg/kg/injection, schedule: Q01DX007 (ip), vehicle: carboxymethylcellulose (CMC)): 89 % of control
- T/C (dose: 60.32 mg/kg/injection, schedule: Q01DX007 (ip), vehicle: other): 75 % of control
- T/C [1]: 120 % of control
- T/C (dose: 94.25 mg/kg/injection, schedule: Q01DX007 (ip), vehicle: carboxymethylcellulose (CMC)): 93 % of control
- T/C [2]: 80 % of control
- T/C (dose: 120.65 mg/kg/injection, schedule: Q01DX007 (ip), vehicle: other): 99 % of control
- T/C [3]: 121 % of control
- T/C (dose: 188.5 mg/kg/injection, schedule: Q01DX007 (ip), vehicle: carboxymethylcellulose (CMC)): 78 % of control
- T/C [4]: 118 % of control
- T/C (dose: 241.3 mg/kg/injection, schedule: Q01DX007 (ip), vehicle: other): 97 % of control
- T/C [5]: 50 % of control

Structure (SMILES): CC1(C)OCC(C(OC(=O)c2ccccc2)C(OC2CCCCO2)C2COC(C)(C)O2)O1 (centres undefined)
- T/C (dose: 62.5 mg/kg/injection, schedule: Q01DX007 (ip), vehicle: carboxymethylcellulose (CMC)): 90 % of control
- T/C (dose: 125.0 mg/kg/injection, schedule: Q01DX007 (ip), vehicle: carboxymethylcellulose (CMC)): 86 % of control
- T/C (dose: 250.0 mg/kg/injection, schedule: Q01DX007 (ip), vehicle: carboxymethylcellulose (CMC)): 100 % of control

Structure (SMILES): O=P(N1CCCCCC1)(N1CC1)N1CC1
- T/C (dose: 1.0 mg/kg/injection, schedule: Q#A X014 (ip), vehicle: methylcellulose (MC)): 91 % of control
- T/C (dose: 1.0 mg/kg/injection, schedule: Q#A X014 (ip), vehicle: saline): 120 % of control
- T/C (dose: 1.5 mg/kg/injection, schedule: Q#A X014 (ip), vehicle: methylcellulose (MC)): 86 % of control
- T/C (dose: 1.5 mg/kg/injection, schedule: Q#A X014 (ip), vehicle: saline): 103 % of control
- T/C (dose: 2.0 mg/kg/injection, schedule: Q#A X014 (ip), vehicle: methylcellulose (MC)): 65 % of control
- T/C (dose: 2.0 mg/kg/injection, schedule: Q#A X014 (ip), vehicle: saline): 88 % of control
- T/C (dose: 3.0 mg/kg/injection, schedule: Q#A X014 (ip), vehicle: methylcellulose (MC)): 61 % of control
- T/C (dose: 3.0 mg/kg/injection, schedule: Q#A X014 (ip), vehicle: saline): 70 % of control

Structure (SMILES): S=P(N1CC1)(N1CC1)N1CC1
- T/C (dose: 0.43 mg/kg/injection, schedule: Q01DX007 (ip), vehicle: carboxymethylcellulose (CMC)): 91 % of control
- T/C (dose: 0.87 mg/kg/injection, schedule: Q01DX007 (ip), vehicle: carboxymethylcellulose (CMC)): 85 % of control
- T/C (dose: 1.75 mg/kg/injection, schedule: Q01DX007 (ip), vehicle: carboxymethylcellulose (CMC)): 104 % of control
- T/C (dose: 3.5 mg/kg/injection, schedule: Q01DX007 (ip), vehicle: carboxymethylcellulose (CMC)): 65 % of control
- T/C (dose: 218.5 mg/kg/injection, schedule: Q#A X014 (ip), vehicle: carboxymethylcellulose (CMC)): 108 % of control
- T/C (dose: 437.5 mg/kg/injection, schedule: Q#A X014 (ip), vehicle: carboxymethylcellulose (CMC)): 110 % of control
- T/C (dose: 875.0 mg/kg/injection, schedule: Q#A X014 (ip), vehicle: carboxymethylcellulose (CMC)): 46 % of control

Structure (SMILES): CCOC(N)=O
- T/C [1]: 103 % of control
- T/C (dose: 85.38 mg/kg/injection, schedule: Q01DX007 (ip), vehicle: carboxymethylcellulose (CMC)): 56 % of control
- T/C [2]: 53 % of control
- T/C [3]: 85 % of control
- T/C (dose: 170.75 mg/kg/injection, schedule: Q01DX007 (ip), vehicle: carboxymethylcellulose (CMC)): 64 % of control
- T/C [4]: 42 % of control
- T/C (dose: 225.0 mg/kg/injection, schedule: Q#A X014 (ip), vehicle: carboxymethylcellulose (CMC)): 113 % of control
- T/C [5]: 77 % of control
- T/C (dose: 273.2 mg/kg/injection, schedule: Q01DX007 (ip), vehicle: carboxymethylcellulose (CMC)): 55 % of control
- T/C (dose: 300.0 mg/kg/injection, schedule: Q#A X014 (ip), vehicle: carboxymethylcellulose (CMC)): 73 % of control
- T/C (dose: 316.0 mg/kg/injection, schedule: Q01DX007 (ip), vehicle: carboxymethylcellulose (CMC)): 67 % of control
- T/C (dose: 341.5 mg/kg/injection, schedule: Q01DX007 (ip), vehicle: carboxymethylcellulose (CMC)): 37 % of control and 46 % of control
- T/C (dose: 395.0 mg/kg/injection, schedule: Q01DX007 (ip), vehicle: carboxymethylcellulose (CMC)): 54 % of control
- T/C (dose: 450.0 mg/kg/injection, schedule: Q01DX007 (ip), vehicle: carboxymethylcellulose (CMC)): 53 % of control
- T/C (dose: 455.33 mg/kg/injection, schedule: Q01DX007 (ip), vehicle: carboxymethylcellulose (CMC)): 62 % of control
- T/C (dose: 500.0 mg/kg/injection, schedule: Q#A X014 (ip), vehicle: carboxymethylcellulose (CMC)): 24 % of control
- T/C (dose: 526.6 mg/kg/injection, schedule: Q01DX007 (ip), vehicle: carboxymethylcellulose (CMC)): 40 % of control
- T/C (dose: 683.0 mg/kg/injection, schedule: Q01DX007 (ip), vehicle: carboxymethylcellulose (CMC)): 21 % of control and 44 % of control
- T/C (dose: 900.0 mg/kg/injection, schedule: Q01DX007 (ip), vehicle: carboxymethylcellulose (CMC)): 23 % of control

Structure (SMILES): Cn1c(=O)c2[nH]cnc2n(C)c1=O
- T/C (dose: 20.43 mg/kg/injection, schedule: Q01DX007 (ip), vehicle: carboxymethylcellulose (CMC)): 75 % of control
- T/C (dose: 40.87 mg/kg/injection, schedule: Q01DX007 (ip), vehicle: carboxymethylcellulose (CMC)): 103 % of control
- T/C (dose: 81.75 mg/kg/injection, schedule: Q01DX007 (ip), vehicle: carboxymethylcellulose (CMC)): 70 % of control
- T/C (dose: 163.5 mg/kg/injection, schedule: Q01DX007 (ip), vehicle: carboxymethylcellulose (CMC)): 113 % of control

Structure (SMILES): CC(=O)Nc1c(Cl)c(Cl)c2c(c1Cl)Cc1cc(Br)ccc1-2
- T/C (dose: 3.0 mg/kg/injection, schedule: Q01DX007 (ip), vehicle: carboxymethylcellulose (CMC)): 75 % of control
- T/C (dose: 6.0 mg/kg/injection, schedule: Q01DX007 (ip), vehicle: carboxymethylcellulose (CMC)): 74 % of control
- T/C (dose: 6.0 mg/kg/injection, schedule: Q01DX007 (ip), vehicle: other): 38 % of control
- T/C (dose: 9.0 mg/kg/injection, schedule: Q01DX007 (ip), vehicle: other): 69 % of control
- T/C (dose: 12.0 mg/kg/injection, schedule: Q01DX007 (ip), vehicle: carboxymethylcellulose (CMC)): 45 % of control
- T/C (dose: 13.0 mg/kg/injection, schedule: Q01DX007 (ip), vehicle: other): 46 % of control
- T/C (dose: 19.0 mg/kg/injection, schedule: Q01DX007 (ip), vehicle: other): 56 % of control
- T/C (dose: 25.0 mg/kg/injection, schedule: Q01DX007 (ip), vehicle: carboxymethylcellulose (CMC)): 63 % of control
- T/C (dose: 28.0 mg/kg/injection, schedule: Q01DX007 (ip), vehicle: other): 35 % of control
- T/C (dose: 41.0 mg/kg/injection, schedule: Q01DX007 (ip), vehicle: other): 62 % of control
- T/C (dose: 50.0 mg/kg/injection, schedule: Q01DX007 (ip), vehicle: carboxymethylcellulose (CMC)): 49 % of control
- T/C (dose: 63.0 mg/kg/injection, schedule: Q01DX007 (ip), vehicle: other): 33 % of control
- T/C (dose: 100.0 mg/kg/injection, schedule: Q01DX007 (ip), vehicle: carboxymethylcellulose (CMC)): 30 % of control

Structure (SMILES): N=C(c1nsnc1N)N1CCCC1
- T/C (dose: 125.0 mg/kg/injection, schedule: Q01DX007 (ip), vehicle: saline): 100 % of control
